Data reported in patent US20240252651A1, “METHOD OF DELIVERING NUCLEIC ACIDS INTO CELLS” (GUANGZHOU LIDE BIOMEDICINE TECHNOLOGY CO., LTD., priority 2021, published 2024).
“Also recorded” adds a separate entry of the source.

Experiments:
Hela cells [1] = assay: Transfection of GFP-expressing plasmid DNA in Hela cells (flow cytometer); type: cell-based, human; conditions: plasmid DNA 0.5 μg/well, material 0.25 to 8 μg/well (dosages per FIG. 4), 24 h
Experimental: In this experiment, with GFP-expressing plasmid DNA as a reporter gene, a gene transfection efficiency of a cationic lipid analog material in Hela cells was detected. A specific method was as follows:
Hela cells were inoculated in a 24-well plate and cultured in an incubator for 12 h; each of different cationic lipid analog materials (0.25 μg/well to 8 μg/well) was mixed with GFP-expressing plasmid DNA (0.5 μg/well) in 40 μL of a sodium acetate buffer (25 mM, pH 5.2), and resulting mixtures each were allowed to stand for 10 min and then diluted with 460 μL of an Opti-MEM medium to obtain plasmid DNA-loaded cationic lipid analog complex particle solutions; a medium for the Hela cells in the plate was removed, then the HeLa cells were washed once with PBS, and the complex particle solutions were added; and the cells were cultured for 24 h, and then a plasmid DNA transfection efficiency in cells was analyzed by a flow cytometer. A commercial gene transfection reagent Lipofectamine 2000 was adopted as a positive control.

Hela cells [2] = assay: Transfection of luciferase-expressing plasmid DNA in HeLa cells (luciferase expression); type: cell-based, human; conditions: plasmid DNA 0.5 μg, 24 h, luciferase expression level, FIG. 5
Experimental: In this example, with luciferase-expressing plasmid DNA as a reporter gene, a gene transfection efficiency of a cationic lipid analog material in HeLa cells was detected. A specific operation method was as follows: Hela cells were inoculated in a 96-well plate and cultured in an incubator for 12 h; each of different cationic lipid analog materials was mixed with luciferase-expressing plasmid DNA (0.5 μg) in 40 μL of a sodium acetate buffer (25 mM, pH 5.2), and resulting mixtures each were allowed to stand for 10 min and then diluted with 460 μL of an Opti-MEM medium to obtain plasmid DNA-loaded cationic lipid analog complex particle solutions; a medium for the Hela cells in the plate was removed, then the Hela cells were washed once with PBS, and the complex particle solutions were added in a volume of 125 μL; the cells were cultured for 24 h, then a resulting culture supernatant was discarded, and the cells were fully lysed; and a substrate was added at 50 μl/well, and an expression level of luciferase was detected by a multi-mode microplate reader.

DC 2.4 cells = assay: Transfection of eGFP-mRNA in DC 2.4 cells (FCM and LSCM); type: cell-based, mouse; conditions: mRNA 0.2 μg/well, material 0.25 to 2 μg/well (dosages per FIG. 7), 24 h, FIG. 7-9
Experimental: In this experiment, with eGFP-mRNA as model mRNA, an mRNA transfection efficiency of a cationic lipid analog material in DC 2.4 cells was detected. A specific operation method was as follows:
DC 2.4 cells were inoculated in a 48-well plate and cultured in an incubator for 12 h; each of different cationic lipid analog materials (0.25 μg/well to 2 μg/well) was mixed with cGFP-expressing mRNA (0.2 μg/well) in 20 μL of a sodium acetate buffer (25 mM, pH 5.2), and resulting mixtures each were allowed to stand for 10 min and then diluted with 230 μL of a Opti-MEM medium to obtain mRNA-loaded complex particle solutions; a medium for the […] were washed once with PBS, and the complex particle solutions were added; and the cells were cultured for 24 h, an mRNA transfection efficiency in cells was observed by FCM and LSCM. A commercial gene transfection reagent Lipofectamine 2000 was adopted as a positive control.

Hela cells [3] = assay: Cytotoxicity by MTT experiment in Hela cells; type: cell-based, human; conditions: material 1 μg/ml, 4 h exposure then 20 h culture, FIG. 11
Experimental: In this experiment, I2R2C16A1, I2R2C17A1, I2R2C18A1, I2R2C19A1, and I2R2C20A1 with high transfection efficiencies were selected as representative cationic lipid analog materials, and the toxicity of cationic lipid analogs for Hela cells was detected by an MTT experiment. A specific experimental method was as follows: HeLa cells were inoculated in a 96-well plate and cultured in an incubator for 12 h, then a medium was removed, and a cationic lipid analog material was added at 1 μg/ml; the cells were cultured for 4 h, then the material was washed away and replaced with DMEM; and the cells were cultured for 20 h, and finally cell viability was detected by MTT.

A549 cells (A549-Luc) = assay: siRNA transfection, luciferase gene silencing in A549-Luc cells; type: cell-based, human; conditions: final siRNA 100 nM, material 0.5 to 3 μg/well, 48 h, FIG. 10
Experimental: In this experiment, with I2R2C18-1A1, I2R3C18-1A1, I2R2C18-2A1, and I2R3C18-2A1 as representative cationic lipid analog materials, siRNA transfection and delivery effects of the cationic lipid analog materials were detected in A549 cells (A549-Luc). A specific operation method was as follows:
Luciferase-expressing A549 cells (A549-Luc) were inoculated in a 96-well plate and cultured in an incubator for 12 h; each of different materials (0.5 μg/well to 3 μg/well) was mixed with siRNA in 40 μL of a sodium acetate buffer (25 mM, pH 5.2), and resulting mixtures each were allowed to stand for 10 min and then diluted with 460 μL of an Opti-MEM medium to obtain siRNA-loaded complex particle solutions (final siRNA concentration was 100 nM); a medium for the A549-Luc cells in the plate was removed, then the A549-Luc cells were washed once with PBS, and the complex particle solutions each were added in a volume of 125 μL; the cells were cultured for 48 h, then a resulting culture supernatant was discarded, and the cells were fully lysed; and a substrate was added at 50 μl/well, and an expression level of luciferase was detected by a multi-mode microplate reader.

SMILES | transfection efficiency of GFP-expressing plasmid DNA, compared with commercial transfection reagent Lipofectamine 2000 (Hela cells [1]) | transfection efficiency of luciferase-expressing plasmid DNA, compared with Lipofectamine 2000 (Hela cells [2]) | mRNA transfection efficiency (eGFP-mRNA), compared with Lipofectamine 2000 (DC 2.4 cells) | cytotoxicity (cell viability by MTT) (Hela cells [3]) | gene silencing efficiency as a function of material dosage (A549 cells (A549-Luc)) | siRNA transfection, silencing of the luciferase reporter gene (A549 cells (A549-Luc)) | transfection efficiency of GFP-expressing plasmid DNA, compared with commercial transfection reagent Lipofectamine 2000 (Hela cells [1]; listed as 11R11C14A1)
CCCCCCCCCCCCCCCC(=O)N(CCCN(C)C)C(C(=O)NCCOCCOCCNC(=O)C(C(C)C)N(CCCN(C)C)C(=O)CCCCCCCCCCCCCCC)C(C)C (centres unmarked) [I2R2C16A1] | reaches or is higher than; also recorded: equivalent to or higher than | equivalent to or higher than | high transfection efficiency; also recorded: equivalent to or higher than | low cytotoxicity |  |  | 
CCCCCCCCCCCCCCCCCCCC(=O)N(CCCN(C)C)C(C(=O)NCCOCCOCCNC(=O)C(C(C)C)N(CCCN(C)C)C(=O)CCCCCCCCCCCCCCCCCCC)C(C)C (centres unmarked) [I2R2C20A1] |  |  |  | low cytotoxicity |  |  | 
CCCCCCCC/C=C\CCCCCCCC(=O)N(CCCN(C)C)C(C(=O)NCCOCCOCCNC(=O)C(C(C)C)N(CCCN(C)C)C(=O)CCCCCCC/C=C\CCCCCCCC)C(C)C (centres unmarked) [I2R2C18-1A1] | reaches or is higher than; also recorded: equivalent to or higher than | equivalent to or higher than | high transfection efficiency; also recorded: equivalent to or higher than |  | increases with the increase of a dosage | efficient gene silencing; also recorded: can transfect siRNA into cells to specifically silence the expression of the luciferase reporter gene | 
CCCCC/C=C\C/C=C\CCCCCCCC(=O)N(CCCN(C)C)C(C(=O)NCCOCCOCCNC(=O)C(C(C)C)N(CCCN(C)C)C(=O)CCCCCCC/C=C\C/C=C\CCCCC)C(C)C (centres unmarked) [I2R2C18-2A1] | reaches or is higher than; also recorded: equivalent to or higher than | equivalent to or higher than | high transfection efficiency; also recorded: equivalent to or higher than |  | increases with the increase of a dosage | efficient gene silencing; also recorded: can transfect siRNA into cells to specifically silence the expression of the luciferase reporter gene | 
CCCCC/C=C\C/C=C\CCCCCCCC(=O)N(CCCN(CC)CC)C(C(=O)NCCOCCOCCNC(=O)C(C(C)C)N(CCCN(CC)CC)C(=O)CCCCCCC/C=C\C/C=C\CCCCC)C(C)C (centres unmarked) [I2R3C18-2A1] | reaches or is higher than; also recorded: equivalent to or higher than | equivalent to or higher than | high transfection efficiency; also recorded: equivalent to or higher than |  | increases with the increase of a dosage | efficient gene silencing; also recorded: can transfect siRNA into cells to specifically silence the expression of the luciferase reporter gene | 
CCCCCCCCCCCCCC(=O)N(CCC1CCCN1C)C(C(=O)NCCCCCCNC(=O)C(C(C)C)N(CCC1CCCN1C)C(=O)CCCCCCCCCCCCC)C(C)C (centres unmarked) [I1R11C14A1] | reaches or is higher than | equivalent to or higher than | high transfection efficiency; also recorded: equivalent to or higher than |  |  |  | equivalent to or higher than
CCCCCCCCCCCCCC(=O)N(CCN(C)C)C(C(=O)NCCOCCOCCNC(=O)C(C(C)C)N(CCN(C)C)C(=O)CCCCCCCCCCCCC)C(C)C (centres unmarked) [I2R1C14A1] | reaches or is higher than; also recorded: equivalent to or higher than | equivalent to or higher than | high transfection efficiency; also recorded: equivalent to or higher than |  |  |  | 
CCCCCCCCCCCCCCCCCC(=O)N(CCCN(CC)CC)C(C(=O)NCCOCCOCCNC(=O)C(C(C)C)N(CCCN(CC)CC)C(=O)CCCCCCCCCCCCCCCCC)C(C)C (centres unmarked) [I2R3C18A1] | reaches or is higher than; also recorded: equivalent to or higher than | equivalent to or higher than | high transfection efficiency; also recorded: equivalent to or higher than |  |  |  | 
CCCCCCCCCCCCCCCCCC(=O)N(CCCN(C)C)C(C(=O)NCCOCCOCCNC(=O)C(C(C)C)N(CCCN(C)C)C(=O)CCCCCCCCCCCCCCCCC)C(C)C (centres unmarked) [I2R2C18A1] |  |  | high transfection efficiency; also recorded: equivalent to or higher than | low cytotoxicity |  |  | 
CCCCC/C=C\C/C=C\CCCCCCCC(=O)N(CCC1CCCN1C)C(C(=O)NCCOCCOCCNC(=O)C(C(C)C)N(CCC1CCCN1C)C(=O)CCCCCCC/C=C\C/C=C\CCCCC)C(C)C (centres unmarked) [I2R11C18-2A1] | reaches or is higher than; also recorded: equivalent to or higher than | equivalent to or higher than | high transfection efficiency; also recorded: equivalent to or higher than |  |  |  | 
